The values that follow come from publication PMC3474771, “Evaluation of 14 Organic Solvents and Carriers for Screening Applications in Zebrafish Embryos and Larvae” (PLoS ONE, 2012).

Read-outs that look alike come from different tables or passages of the source. Some results are limits rather than exact numbers.

The subject of the series is zebrafish embryos and larvae. As to conditions: for Maximum-tolerated concentration (MTC): highest concentration with no phenotypic abnormalities, followed to 9 dpf; for Phenotypic effects above MTC after 24 hours (average penetrance at least 50%): at the concentration in parentheses; for MTC / tolerated concentration: over all or most developmental stages analyzed, 24-hour exposure. Here is the method:
Zebrafish embryos of the AB wild-type strain (originally obtained from the Zebrafish International Resource Center, Eugene, Oregon, USA) were raised at 28°C. Zebrafish husbandry, embryo collection, and embryo and larva maintenance were performed as described, [21]. Toxicity assays were standardly performed in 24-well microtiter plates (wrapped with Parafilm to limit solvent evaporation) using 10 embryos per well in 1 ml of 0.3× Danieau's medium (17 mM NaCl, 2 mM KCl, 0.12 mM MgSO4, 1.8 mM Ca(NO3)2 and 1.5 mM HEPES, pH 7.6). Each experiment was repeated 3 times for a total of 30 embryos or larvae analyzed per solvent per developmental staged tested. Data were only recorded for experiments in which the percentage of normal embryos or larvae in the control group was at least 90%. […] In determining the maximum tolerated concentration (MTC) for each solvent and carrier, all post-exposure embryos and larvae were allowed to develop in larva medium to 9 dpf, so as to detect any deleterious effects appearing after this 24-hour window. Solvents and carriers were obtained from the following suppliers: acetone (Chemlab, Zedelgem, Belgium), acetonitrile (Acros Organics, Geel, Belgium), albumin (BSA, Sigma-Aldrich, Bornem, Belgium), butanone (Riedel-de Haën, Seelze, Germany), cyclodextrin (2- hydroxypropyl-beta-cyclodextrin, Sigma-Aldrich), dimethyl formamide (Acros), DMSO (Agros), ethanol (Fisher Scientific, Doornik, Belgium), glycerol (Acros), isopropanol (Chemlab), methanol (Chemlab), polyethylene glycol-400 (Fluka, Bornem, Belgium), propylene glycol (Certa, Eigenbrakel, Belgium), solketal (Merck, Overijse, Belgium). Statistical analyses were done using chi-square in Microsoft Excel.
Twelve solvents and 2 carriers – chosen based solely on their potential utility for the solubilization and delivery of a structurally diverse range of small molecules – were analyzed for their effects on zebrafish embryos and larvae. The solvents included acetone, acetonitrile, butanone, dimethyl formamide, DMSO, ethanol, glycerol, isopropanol, methanol, polyethylene glycol (PEG-400), propylene glycol, and solketal, and the carriers included albumin (BSA) and cyclodextrin (2-hydroxypropyl-beta-cyclodextrin, or HPBCD). […] For this initial study, the effects of a 24-hour exposure to each solvent and carrier was analyzed using embryos and larvae at the following developmental stages: 2–4 cell, 4 hours-post fertilization (hpf), and 1, 2, 3, 4, and 7 days post-fertilization (dpf).

[1] abbreviates: exposure for 24 hours beginning at 1 dpf.
Where [2] appears, read: exposure for 24 hours beginning at 2 dpf.
Where [3] appears, read: exposure for 24 hours beginning at 2–4 cell stage.
Setting [4] is: exposure for 24 hours beginning at 3 dpf.
The mark [5] stands for this setting: exposure for 24 hours beginning at 4 dpf.
[6] abbreviates: exposure for 24 hours beginning at 4 hpf.
The mark [7] stands for this setting: exposure for 24 hours beginning at 5 dpf.
[8] abbreviates: exposure for 24 hours beginning at 7 dpf.
The mark [9] stands for this setting: 24 hours exposure from 2–4 cell stage.

Regarding `CCC(C)=O` [Butanone (MEK), 2-butanone], the “Lowest concentration at which an average penetrance of at least 50% was observed for the phenotypic effects” value is given as 2% (24 hours exposure from 1 dpf), 2.5% (24 hours exposure from 2 dpf) and 2% (24 hours exposure from 3 dpf). The “Maximum-tolerated concentration (MTC)” value is, setting by setting: under setting [1], 1%; under setting [2], 1.5%; under setting [3], 0.5%; (exposure for 24 hours beginning at 2–4 cell stage, listed as butanone) no more than 0.5%; under setting [4], 1.5%; under setting [5], 1.5%. Besides, the “Maximum-tolerated concentration (MTC)” value by setting is: under setting [6], 1%; under setting [7], less than 0.5%; (exposure for 24 hours beginning at 5 dpf, listed as butanone) no more than 0.5%; under setting [8], 0.5%; (exposure for 24 hours beginning at 7 dpf, listed as butanone) no more than 0.5%. Besides, the “Phenotypic effects above MTC after 24 hours (average penetrance at least 50%)” value is on record as “IC MC PE” (exposure from 1 dpf), “DD HJ” (exposure from 2 dpf) and “HJ SB” (exposure from 3 dpf).

In the case of `CC(O)COC[C@H]1O[C@@H]2O[C@H]3[C@H](O)[C@@H](O)[C@@H](O[C@H]4[C@H](O)[C@@H](O)[C@@H](O[C@H]5[C@H](O)[C@@H](O)[C@@H](O[C@H]6[C@H](O)[C@@H](O)[C@@H](O[C@H]7[C@H](O)[C@@H](O)[C@@H](O[C@H]8[C@H](O)[C@@H](O)[C@@H](O[C@H]1[C@H](O)[C@H]2O)O[C@@H]8COCC(C)O)O[C@@H]7COCC(C)O)O[C@@H]6COCC(C)O)O[C@@H]5COCC(C)O)O[C@@H]4COCC(C)O)O[C@@H]3COCC(C)O` (stereo partly drawn) [Cyclodextrin (HPBCD), 2-hydroxypropyl-beta-cyclodextrin], the “MTC / tolerated concentration” value is 1%. For the same molecule, the “Maximum-tolerated concentration (MTC)” value under setting [1] is given as 1%. For the same molecule, the “Maximum-tolerated concentration (MTC)” value under setting [2] came to 1.5%. Also, the “Maximum-tolerated concentration (MTC)” value under setting [3] was determined as 1%. Besides, the “Maximum-tolerated concentration (MTC)” value under setting [4] is 1.5%. In addition, the “Maximum-tolerated concentration (MTC)” value under setting [5] turned out to be 1%. Further, the “Maximum-tolerated concentration (MTC)” value under setting [6] was found to be 0.5%. In addition, the “Maximum-tolerated concentration (MTC)” value under setting [7] is recorded as 1.5%. For the same molecule, the “Maximum-tolerated concentration (MTC)” value under setting [8] was 1%.

`CN(C)C=O` [Dimethyl formamide (DMF), Dimethyl formamide]: the “MTC / tolerated concentration” value is given as no more than 0.5%. Besides, where the note is “24 hours exposure from 1 dpf”, the “Lowest concentration at which an average penetrance of at least 50% was observed for the phenotypic effects” value is recorded as 0.5%. Besides, the “Lowest concentration at which an average penetrance of at least 50% was observed for the phenotypic effects” value (24 hours exposure from 2 dpf) is 1%. The “Lowest concentration at which an average penetrance of at least 50% was observed for the phenotypic effects” value under setting [9] amounted to 1%. For the same molecule, the “Lowest concentration at which an average penetrance of at least 50% was observed for the phenotypic effects” value (24 hours exposure from 3 dpf) came to 1%. Moreover, the “Lowest concentration at which an average penetrance of at least 50% was observed for the phenotypic effects” value (24 hours exposure from 4 dpf) was 1%. The “Lowest concentration at which an average penetrance of at least 50% was observed for the phenotypic effects” value (24 hours exposure from 4 hpf) turned out to be 1%. Where the note is “24 hours exposure from 5 dpf”, the “Lowest concentration at which an average penetrance of at least 50% was observed for the phenotypic effects” value is 1.5%. The “Lowest concentration at which an average penetrance of at least 50% was observed for the phenotypic effects” value (24 hours exposure from 7 dpf) is 0.5%. The “Maximum-tolerated concentration (MTC)” value under setting [1] is given as less than 0.5%. Besides, the “Maximum-tolerated concentration (MTC)” value under setting [2] was found to be 0.5%. Further, the “Maximum-tolerated concentration (MTC)” value under setting [3] is listed as 0.5%. Also, the “Maximum-tolerated concentration (MTC)” value under setting [4] amounted to 0.5%. Moreover, the “Maximum-tolerated concentration (MTC)” value under setting [5] was 0.5%. Also, the “Maximum-tolerated concentration (MTC)” value under setting [6] is recorded as less than 0.5%. Besides, the “Maximum-tolerated concentration (MTC)” value under setting [7] is 0.5%. The “Maximum-tolerated concentration (MTC)” value under setting [8] is recorded as less than 0.5%. For the same molecule, the “Phenotypic effects above MTC after 24 hours (average penetrance at least 50%)” value (exposure from 1 dpf) is “AP BH IC IM NB PE”. In addition, the “Phenotypic effects above MTC after 24 hours (average penetrance at least 50%)” value (exposure from 2 dpf) was “AP HJ PE”. For the same molecule, the “Phenotypic effects above MTC after 24 hours (average penetrance at least 50%)” value (exposure from 3 dpf) is “HJ IC PE”. For the same molecule, the “Phenotypic effects above MTC after 24 hours (average penetrance at least 50%)” value (exposure from 4 dpf) is on record as “AP LP”. Also, the “Phenotypic effects above MTC after 24 hours (average penetrance at least 50%)” value (exposure from 4 hpf) is “AP BC BS CF PE”. The “Phenotypic effects above MTC after 24 hours (average penetrance at least 50%)” value (exposure from 5 dpf) is “IM LP PE SB”. The “Phenotypic effects above MTC after 24 hours (average penetrance at least 50%)” value (exposure from 7 dpf) is reported as “HO LP”.

Consider `CCO` [Ethanol, ethanol], for which the “Lowest concentration at which an average penetrance of at least 50% was observed for the phenotypic effects” value is listed as 2% (24 hours exposure from 1 dpf); 2% (24 hours exposure from 2 dpf); 1.5% under setting [9]; 2% (24 hours exposure from 3 dpf); 2% (24 hours exposure from 4 dpf); 1.5% (24 hours exposure from 4 hpf). In addition, the “Lowest concentration at which an average penetrance of at least 50% was observed for the phenotypic effects” value (24 hours exposure from 5 dpf) is 2.5% and the “Lowest concentration at which an average penetrance of at least 50% was observed for the phenotypic effects” value (24 hours exposure from 7 dpf) is 1.5%. Also, the “Maximum-tolerated concentration (MTC)” value is given as 1% under setting [1]; 1.5% under setting [2]; 1% under setting [3]; 1% under setting [4]; 1.5% under setting [5]; 0.5% under setting [6]. In addition, the “Maximum-tolerated concentration (MTC)” value worked out at 0.5% under setting [7] and 1% under setting [8].

For the molecule `OCC(O)CO` [Glycerol], the “Lowest concentration at which an average penetrance of at least 50% was observed for the phenotypic effects” value was found to be 2% (24 hours exposure from 1 dpf); 2% (24 hours exposure from 2 dpf); 2.5% under setting [9]; 2% (24 hours exposure from 3 dpf); 2% (24 hours exposure from 4 hpf). The “Maximum-tolerated concentration (MTC)” value is reported as 1.5% under setting [1]; 1.5% under setting [2]; 1.5% under setting [3]; 1.5% under setting [4]; 2% under setting [5]; 1.5% under setting [6]. Also, the “Maximum-tolerated concentration (MTC)” value runs as follows: under setting [7], greater than 2.5%; (exposure for 24 hours beginning at 5 dpf, listed as glycerol) no less than 2.5%; under setting [8], greater than 2.5%; (exposure for 24 hours beginning at 7 dpf, listed as glycerol) no less than 2.5%.

As for `CC(C)O` [Isopropanol, isopropanol], the “Lowest concentration at which an average penetrance of at least 50% was observed for the phenotypic effects” value reads like this: (24 hours exposure from 1 dpf) 1%; (24 hours exposure from 2 dpf) 2%; (24 hours exposure from 3 dpf) 2%; (24 hours exposure from 4 hpf) 1.5%; (24 hours exposure from 7 dpf) 1%. Moreover, the “Maximum-tolerated concentration (MTC)” value worked out at 0.5% under setting [1]; 1% under setting [2]; 0.5% under setting [3]; 1.5% under setting [4]; 0.5% under setting [5]; 1% under setting [6]. Also, the “Maximum-tolerated concentration (MTC)” value runs as follows: under setting [7], less than 0.5%; under setting [8], 0.5%. Also, the “Phenotypic effects above MTC after 24 hours (average penetrance at least 50%)” value reads like this: (exposure from 1 dpf) “AP IC”; (exposure from 2 dpf) “IC LP”; (exposure from 3 dpf) “BC IC IM HJ PE”; (exposure from 7 dpf) “IC LP NB PE”.
